In the NIST ThermoML archive (doi:10.1021/je300993n):
Numbers after ± are expanded uncertainties.

What was measured:
[1] = refractive index (Na D-line) (dimensionless); wn = mass fraction of the nth substance listed; conditions: 293.15 K, 101 kPa, Liquid, Standard Abbe refractometry
[2] = for mass density: 293.15 K, 101.33 kPa, gas displacement

Compound: CCCC[N+](CC)(CC)CC.F[P-](F)(F)(F)(F)F [N,N,N-triethyl-N-butylammonium hexafluorophosphate] + O=S(=O)(O)C(F)(F)F
- refractive index ([1]; w1 = 0.1): 1.3405 ± 0.0052
- refractive index ([1]; w1 = 0.2): 1.3522 ± 0.0052
- refractive index ([1]; w1 = 0.3): 1.3632 ± 0.0051
- refractive index ([1]; w1 = 0.4): 1.3745 ± 0.0051
- refractive index ([1]; w1 = 0.5): 1.3786 ± 0.005
- refractive index ([1]; w1 = 0.6): 1.3782 ± 0.005

Compound: O=S(=O)(O)C(F)(F)F [methanesulfonic acid, trifluoro-] + CCCC[N+](CC)(CC)CC.F[P-](F)(F)(F)(F)F
- refractive index ([1]; w2 = 0): 1.3292 ± 0.005

Compound: O=S(=O)(O)C(F)(F)F [methanesulfonic acid, trifluoro-] + CCCCCC[N+](CC)(CC)CC.F[B-](F)(F)F
- refractive index ([1]; w2 = 0): 1.3292 ± 0.005

Compound: CCCC[N+](CC)(CC)CC.F[P-](F)(F)(F)(F)F [N,N,N-triethyl-N-butylammonium hexafluorophosphate]
- mass density ([2]; Crystal): 1366 ± 16 kg/m3
- Normal melting temperature ([2]; Crystal 1, DTA): 178.90 ± 0.5 °C

Compound: CC[N+](CC)(CC)CC.F[P-](F)(F)(F)(F)F [tetraethylammonium hexafluorophosphate] + O=S(=O)(O)C(F)(F)F
- refractive index ([1]; w1 = 0.1): 1.3398 ± 0.0051
- refractive index ([1]; w1 = 0.2): 1.3499 ± 0.0051
- refractive index ([1]; w1 = 0.3): 1.3602 ± 0.0051
- refractive index ([1]; w1 = 0.4): 1.3691 ± 0.0051

Compound: CCCCCC[N+](CC)(CC)CC.F[P-](F)(F)(F)(F)F [N,N,N-triethyl-N-hexylammonium hexafluorophosphate] + O=S(=O)(O)C(F)(F)F
- refractive index ([1]; w1 = 0.1): 1.3421 ± 0.0052
- refractive index ([1]; w1 = 0.2): 1.3549 ± 0.0052
- refractive index ([1]; w1 = 0.3): 1.3667 ± 0.0051
- refractive index ([1]; w1 = 0.4): 1.3762 ± 0.0051

Compound: CC[N+](CC)(CC)CC.F[B-](F)(F)F [tetraethylammonium tetrafluoroborate]
- mass density ([2]; Crystal): 1220 ± 16 kg/m3
- Normal melting temperature ([2]; Crystal, DTA): 71.40 ± 0.5 °C

Compound: O=S(=O)(O)C(F)(F)F [methanesulfonic acid, trifluoro-] + CC[N+](CC)(CC)CC.[F][Sb-]([F])([F])([F])([F])[F]
- refractive index ([1]; w2 = 0): 1.3292 ± 0.005

Compound: CCCC[N+](CC)(CC)CC.F[B-](F)(F)F [N,N,N-triethyl-N-butylammonium tetrafluoroborate]
- mass density ([2]; Crystal 2): 1140 ± 16 kg/m3
- Normal melting temperature ([2]; Crystal 1, DTA): 161.90 ± 0.5 °C
- Triple point temperature ([2]; Crystal 2, DTA): 305.85 ± 0.5 K

Compound: O=S(=O)(O)C(F)(F)F [methanesulfonic acid, trifluoro-] + CCCCCC[N+](CC)(CC)CC.F[P-](F)(F)(F)(F)F
- refractive index ([1]; w2 = 0): 1.3292 ± 0.005

Compound: CCCCCC[N+](CC)(CC)CC.[F][Sb-]([F])([F])([F])([F])[F] [N,N,N-triethyl-N-hexylammonium hexafluoroantimonate]
- mass density ([2]; Crystal): 1488 ± 16 kg/m3
- Normal melting temperature ([2]; Crystal, DTA): 174.00 ± 0.5 °C

Compound: O=S(=O)(O)C(F)(F)F [methanesulfonic acid, trifluoro-] + CCCC[N+](CC)(CC)CC.F[B-](F)(F)F
- refractive index ([1]; w2 = 0): 1.3292 ± 0.005

Compound: CCCCCCCC[N+](CC)(CC)CC.F[B-](F)(F)F [N,N,N-triethyl-N-octylammonium tetrafluoroborate]
- mass density ([2]; Crystal): 1065 ± 16 kg/m3
- Normal melting temperature ([2]; Crystal, DTA): 101.40 ± 0.5 °C

Compound: O=S(=O)(O)C(F)(F)F [methanesulfonic acid, trifluoro-] + CCCCCCCC[N+](CC)(CC)CC.F[P-](F)(F)(F)(F)F
- refractive index ([1]; w2 = 0): 1.3292 ± 0.005

Compound: CCCC[N+](CC)(CC)CC.F[B-](F)(F)F [N,N,N-triethyl-N-butylammonium tetrafluoroborate] + O=S(=O)(O)C(F)(F)F
- refractive index ([1]; w1 = 0.1): 1.3451 ± 0.0052
- refractive index ([1]; w1 = 0.2): 1.3543 ± 0.0051
- refractive index ([1]; w1 = 0.3): 1.3636 ± 0.0051
- refractive index ([1]; w1 = 0.4): 1.3698 ± 0.0051
- refractive index ([1]; w1 = 0.5): 1.3771 ± 0.0051
- refractive index ([1]; w1 = 0.6): 1.3857 ± 0.0051

Compound: CCCCCCCC[N+](CC)(CC)CC.F[B-](F)(F)F [N,N,N-triethyl-N-octylammonium tetrafluoroborate] + O=S(=O)(O)C(F)(F)F
- refractive index ([1]; w1 = 0.1): 1.3493 ± 0.0052
- refractive index ([1]; w1 = 0.2): 1.3583 ± 0.0051
- refractive index ([1]; w1 = 0.3): 1.3672 ± 0.0051
- refractive index ([1]; w1 = 0.4): 1.3745 ± 0.0051
- refractive index ([1]; w1 = 0.5): 1.3811 ± 0.0051
